# Results as given in patent US20130065818A1, “Arylamide Compounds And Compositions And Uses Thereof” (POLYMEDIX, priority 2006, published 2013).
# Where “and” joins values, the source holds several entries; their conditions need not be identical. Identical values can stand only once. Like-named read-outs stand apart in the source and are kept apart here.
# Experiments:
# [1] = test system: Streptococcus viridans group; test: MIC, 25 ocular isolates, broth microdilution (Example 8); assay type: cell-based
# Experimental: Mueller-Hinton Broth supplemented with 2% lysed horse blood in tubes was inoculated with 25 ocular isolates of Streptococcus pneumoniae, Streptococcus viridans group, and Moraxella species (including Moraxella catarrhalis) plus two controls (Staphylococcus aureus and E. coli) and incubated at 37° C. overnight. Additionally, Mueller-Hinton Broth in tubes was inoculated with two controls (Staphylococcus aureus and E. coli) and incubated at 37° C. overnight on a shaker set at 250 rpm.
# (§1) On the day of testing, a 640 μg/ml (1280 μg/ml for Serratia marcescens and Pseudomonas aeruginosa) concentration was prepared from a 1% stock solution in 0.01% acetic acid, 0.2% BSA in polypropylene tubes.
# (§2) Serial doubling dilutions in 0.01% acetic acid, 0.2% BSA in 96 well polypropylene plates, which are used as reservoirs for the inoculation of the test plates, were carried out to obtain serial dilutions of test agents at 10 times the required test concentrations: 640, 320, 160, 80, 40, 20, 10, 5, 2.5, 1.25, and 0.625 μg/ml (1280, 640, 320, 160, 80, 40, 20, 10, 5, 2.5, and 1.25 μg/ml for Serratia marcescens and Pseudomonas aeruginosa).
# (§3) Ten μl of diluted 10×test agents was added to each well of one row of the 96 well polypropylene plates from column 2 to column 12 (column 1 is a control for bacteria alone, with no peptide). Test agent concentrations in columns 2-12 were as follows: 64, 32, 16, 8, 4, 2, 1, 0.5, 0.25, 0.125, and 0.0625 μg/ml (128, 64, 32, 16, 8, 4, 2, 1, 0.5, 0.25, and 0.125 μg/ml for Serratia marcescens and Pseudomonas aeruginosa). The same peptide was in each of the 8 rows. One plate contained dilutions of one test agent and 8 bacterial isolates.
# On the day of testing, the overnight bacterial broth cultures of Streptococcus pneumoniae, Streptococcus viridans and Moraxella species (including Moraxella catarrhalis) plus two controls (Staphylococcus aureus and E. coli) were diluted in 5 ml of trypticase soy broth to yield turbidity equal to a 0.5 McFarland standard. The final inoculum for MIC testing for Streptococcus pneumoniae, Streptococcus viridans and Moraxella species (including Moraxella catarrhalis) was achieved by placing 0.1 ml of the turbidity adjusted sample to 5 ml of Mueller-Hinton broth containing 2% lysed horse red blood cells.
# (§4) Ninety μl of the bacterial suspensions was dispensed in each well from column 1 to column 12. Each bacterial isolate was placed in one row of a 96 well polypropylene plate containing the test agents. The plates were placed on shaker at 15 minutes at room temperature, and then incubated at 37° C. overnight. MICs were determined visually as the lowest concentration of drug that inhibits visible bacterial growth.
# [2] = test system: Staphylococcus aureus fluoroquinolone-susceptible; test: as above; assay type: cell-based
# Experimental: • Mueller-Hinton Broth in tubes was inoculated with 25 ocular isolates of Staphylococcus aureus fluoroquinolone-susceptible, Staphylococcus aureus fluoroquinolone-resistant, Staphylococcus epidermidis (Coagulase-negative Staphylococcus) fluoroquinolone-susceptible, Staphylococcus epidermidis (Coagulase-negative Staphylococcus) fluoroquinolone-resistant, Pseudomonas aeruginosa and Serratia marcescens, plus two controls (Staphylococcus aureus and E. coli) and incubated at 37° C. overnight on a shaker set at 250 rpm.
# as §1, §2, §3
# On the day of testing, the overnight bacterial broth cultures of Staphylococcus aureus fluoroquinolone-susceptible, Staphylococcus aureus fluoroquinolone-resistant, Staphylococcus epidermidis (Coagulase-negative Staphylococcus) fluoroquinolone-susceptible, Staphylococcus epidermidis (Coagulase-negative Staphylococcus) fluoroquinolone-resistant, Serratia marcescens, and Pseudomonas aeruginosa, plus two controls (Staphylococcus aureus and E. coli) were diluted in 5 ml of trypticase soy broth to yield turbidity equal to a 0.5 McFarland standard. The final inoculum for MIC testing for Staphylococcus aureus fluoroquinolone-susceptible, Staphylococcus aureus fluoroquinolone-resistant, Staphylococcus epidermidis (Coagulase-negative Staphylococcus) fluoroquinolone-susceptible, Staphylococcus epidermidis (Coagulase-negative Staphylococcus) fluoroquinolone-resistant, Serratia marcescens, and Pseudomonas aeruginosa was achieved by placing 0.05 ml of the turbidity adjusted sample to 5 ml of Mueller-Hinton broth.
# as §4
smiles,measurement,setting,value
N=C(N)NCCCCC(=O)Nc1cc(C(F)(F)F)cc(NC(=O)c2cc(C(=O)Nc3cc(C(F)(F)F)cc(NC(=O)CCCCNC(=N)N)c3O[C@@H]3CCNC3)ncn2)c1O[C@@H]1CCNC1 [Oligomer 4],MIC50,"[1]; 25 isolates, Row 13",4 µg/mL
same,MIC90,"[1]; 25 isolates, Row 22, >64 was Replaced with 128",8 µg/mL
same,Range of MICs,"[1]; 25 isolates, Summary of Results, >64 was Replaced with 128",1 to 32 µg/mL
same,MIC,"[1]; Streptococcus viridans, 25 ocular isolates, Mueller-Hinton broth with 2% lysed horse red blood cells, read-out: Median MIC",4 µg/mL
same,MIC,"[1]; Streptococcus viridans, isolate 1—K1684, read-out: MIC",2 µg/mL
same,MIC,"[1]; Streptococcus viridans, isolate 2—K1680, read-out: MIC",4 µg/mL
same,MIC,"[1]; Streptococcus viridans, isolate 3—E546, read-out: MIC",1 µg/mL
same,MIC,"[1]; Streptococcus viridans, isolate 4—E272, read-out: MIC",2 µg/mL
same,MIC,"[1]; Streptococcus viridans, isolate 5—E506, read-out: MIC",16 µg/mL
same,MIC,"[1]; Streptococcus viridans, isolate 6—E496, read-out: MIC",1 µg/mL
same,MIC,"[1]; Streptococcus viridans, isolate 7—E456, read-out: MIC",4 µg/mL
same,MIC,"[1]; Streptococcus viridans, isolate 8—E432, read-out: MIC",4 µg/mL
same,MIC,"[1]; Streptococcus viridans, isolate 9—E423, read-out: MIC",4 µg/mL
same,MIC,"[1]; Streptococcus viridans, isolate 10—E418, read-out: MIC",8 µg/mL
same,MIC,"[1]; Streptococcus viridans, isolate 11—E412, read-out: MIC",2 µg/mL
same,MIC,"[1]; Streptococcus viridans, isolate 12—E409, read-out: MIC",8 µg/mL
same,MIC,"[1]; Streptococcus viridans, isolate 13—E405, read-out: MIC",4 µg/mL
same,MIC,"[1]; Streptococcus viridans, isolate 14—E404, read-out: MIC",32 µg/mL
same,MIC,"[1]; Streptococcus viridans, isolate 15—E396, read-out: MIC",16 µg/mL
same,MIC,"[1]; Streptococcus viridans, isolate 16—E262, read-out: MIC",1 µg/mL
same,MIC,"[1]; Streptococcus viridans, isolate 17—E362, read-out: MIC",4 µg/mL
same,MIC,"[1]; Streptococcus viridans, isolate 18—E359, read-out: MIC",4 µg/mL
same,MIC,"[1]; Streptococcus viridans, isolate 19—E348, read-out: MIC",8 µg/mL
same,MIC,"[1]; Streptococcus viridans, isolate 20—E344, read-out: MIC",4 µg/mL
same,MIC,"[1]; Streptococcus viridans, isolate 21—E308, read-out: MIC",4 µg/mL
same,MIC,"[1]; Streptococcus viridans, isolate 22—E294, read-out: MIC",4 µg/mL
same,MIC,"[1]; Streptococcus viridans, isolate 23—E292, read-out: MIC",4 µg/mL
same,MIC,"[1]; Streptococcus viridans, isolate 24—E285, read-out: MIC",4 µg/mL
same,MIC,"[1]; Streptococcus viridans, isolate 25—E265, read-out: MIC",1 µg/mL
same,MIC,"[1]; Streptococcus viridans, n=25 per group, read-out: Median MIC",4 µg/mL
same,MIC90,"[1]; Streptococcus viridans, 25 isolates, Summary of Results, >64 was Replaced with 128, read-out: MIC90",8 µg/mL
same,MIC50,"[1]; Streptococcus viridans, 25 isolates, Summary of Results, read-out: MIC50",4 µg/mL
same,MIC,"[1]; Streptococcus viridans, 25 isolates, Summary of Results, read-out: Median MIC",4 µg/mL
same,MIC50,[1]; n=25 per group,4 µg/mL
same,MIC90,[1]; n=25 per group,8 µg/mL
same,Range of MICs,[1]; n=25 per group,1 to 32 µg/mL
same,"MIC, sorted list for MIC50 and MIC90 Determinations (QSSA-A)","[2]; 25 isolates sorted ascending, Row 1-25, in µg/mL",0.250 and 0.500
same,MIC50,"[2]; 25 isolates, Row 13",0.25 µg/mL
same,MIC90,"[2]; 25 isolates, Row 22",0.5 µg/mL
same,Range of MICs,"[2]; 25 isolates, Summary of Results",0.125 to 0.5 µg/mL
same,MIC,"[2]; Staphylococcus aureus, 25 ocular isolates, read-out: Median MIC",≤ 0.25 µg/mL
same,MIC,"[2]; Staphylococcus aureus, isolate 1—E402, read-out: MIC",0.25 µg/mL
same,MIC,"[2]; Staphylococcus aureus, isolate 2—E1512, read-out: MIC",0.25 µg/mL
same,MIC,"[2]; Staphylococcus aureus, isolate 3—E253, read-out: MIC",0.25 µg/mL
same,MIC,"[2]; Staphylococcus aureus, isolate 4—K1518, read-out: MIC",0.25 µg/mL
same,MIC,"[2]; Staphylococcus aureus, isolate 5—K1525, read-out: MIC",0.125 µg/mL
same,MIC,"[2]; Staphylococcus aureus, isolate 6—K1663, read-out: MIC",0.5 µg/mL
same,MIC,"[2]; Staphylococcus aureus, isolate 7—K1648, read-out: MIC",0.25 µg/mL
same,MIC,"[2]; Staphylococcus aureus, isolate 8—K1646, read-out: MIC",0.25 µg/mL
same,MIC,"[2]; Staphylococcus aureus, isolate 9—K1642, read-out: MIC",0.5 µg/mL
same,MIC,"[2]; Staphylococcus aureus, isolate 10—K1638, read-out: MIC",0.5 µg/mL
same,MIC,"[2]; Staphylococcus aureus, isolate 11—K1628, read-out: MIC",0.25 µg/mL
same,MIC,"[2]; Staphylococcus aureus, isolate 12—K1618, read-out: MIC",0.5 µg/mL
same,MIC,"[2]; Staphylococcus aureus, isolate 13—K1617, read-out: MIC",0.25 µg/mL
same,MIC,"[2]; Staphylococcus aureus, isolate 14—K1611, read-out: MIC",0.25 µg/mL
same,MIC,"[2]; Staphylococcus aureus, isolate 15—K1607, read-out: MIC",0.25 µg/mL
same,MIC,"[2]; Staphylococcus aureus, isolate 16—K1600, read-out: MIC",0.25 µg/mL
same,MIC,"[2]; Staphylococcus aureus, isolate 17—K1591, read-out: MIC",0.25 µg/mL
same,MIC,"[2]; Staphylococcus aureus, isolate 18—K1585, read-out: MIC",0.25 µg/mL
same,MIC,"[2]; Staphylococcus aureus, isolate 19—K1583, read-out: MIC",0.25 µg/mL
same,MIC,"[2]; Staphylococcus aureus, isolate 20—K1574, read-out: MIC",0.25 µg/mL
same,MIC,"[2]; Staphylococcus aureus, isolate 21—K1566, read-out: MIC",0.25 µg/mL
same,MIC,"[2]; Staphylococcus aureus, isolate 22—K1551, read-out: MIC",0.25 µg/mL
same,MIC,"[2]; Staphylococcus aureus, isolate 23—K1545, read-out: MIC",0.25 µg/mL
same,MIC,"[2]; Staphylococcus aureus, isolate 24—K1540, read-out: MIC",0.25 µg/mL
same,MIC,"[2]; Staphylococcus aureus, isolate 25—K1530, read-out: MIC",0.25 µg/mL
same,MIC,"[2]; Staphylococcus aureus, n=25 per group, read-out: Median MIC",0.25 µg/mL
same,MIC50,"[2]; Staphylococcus aureus, 25 isolates, Summary of Results, read-out: MIC50",0.25 µg/mL
same,MIC90,"[2]; Staphylococcus aureus, 25 isolates, Summary of Results, read-out: MIC90",0.25 µg/mL
same,MIC,"[2]; Staphylococcus aureus, 25 isolates, Summary of Results, read-out: Median MIC",0.25 µg/mL
same,MIC50,[2]; n=25 per group,0.25 µg/mL
same,MIC90,[2]; n=25 per group,0.25 µg/mL
same,Range of MICs,[2]; n=25 per group,0.125 to 0.5 µg/mL
